{
  "source": "patent US9718854B2",
  "about": "“Selective glycosidase inhibitors and uses thereof” (priority 2011, dated 2017)",
  "key": {"[1]": {"target": "O-GlcNAcase (Rattus norvegicus (Rat), UniProt Q8VIJ5)", "sequence (Q8VIJ5 whole entry)": "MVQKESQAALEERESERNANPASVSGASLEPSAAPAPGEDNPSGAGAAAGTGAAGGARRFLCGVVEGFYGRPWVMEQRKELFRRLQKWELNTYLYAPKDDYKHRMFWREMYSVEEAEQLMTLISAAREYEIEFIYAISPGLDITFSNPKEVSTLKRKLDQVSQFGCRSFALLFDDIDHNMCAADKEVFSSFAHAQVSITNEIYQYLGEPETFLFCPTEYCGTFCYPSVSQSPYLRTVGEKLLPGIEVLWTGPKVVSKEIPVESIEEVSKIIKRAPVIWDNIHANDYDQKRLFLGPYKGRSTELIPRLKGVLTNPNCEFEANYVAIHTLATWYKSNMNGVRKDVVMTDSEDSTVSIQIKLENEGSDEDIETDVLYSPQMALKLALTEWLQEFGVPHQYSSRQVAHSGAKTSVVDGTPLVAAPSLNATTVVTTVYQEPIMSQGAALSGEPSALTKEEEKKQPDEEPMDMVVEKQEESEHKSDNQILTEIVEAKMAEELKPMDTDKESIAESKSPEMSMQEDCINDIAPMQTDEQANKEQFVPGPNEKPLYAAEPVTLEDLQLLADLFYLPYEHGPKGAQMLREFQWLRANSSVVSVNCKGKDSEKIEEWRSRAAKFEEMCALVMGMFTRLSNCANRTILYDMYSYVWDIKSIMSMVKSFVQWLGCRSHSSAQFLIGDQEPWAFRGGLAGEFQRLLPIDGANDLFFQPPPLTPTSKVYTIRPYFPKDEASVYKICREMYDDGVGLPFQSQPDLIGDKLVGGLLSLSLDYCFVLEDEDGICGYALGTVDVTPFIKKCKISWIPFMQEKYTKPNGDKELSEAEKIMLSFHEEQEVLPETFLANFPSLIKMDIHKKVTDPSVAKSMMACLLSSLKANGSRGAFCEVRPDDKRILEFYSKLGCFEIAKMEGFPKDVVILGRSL", "assay": "Cell-based ELISA of O-GlcNAcylated protein (RL-2 antibody) for cellular O-GlcNAcase inhibition", "text": "Assay for Determination of Cellular Activity for Compounds that Inhibit O-GlcNAcase Activity\nInhibition of O-GlcNAcase, which removes O-GlcNAc from cellular proteins, results in an increase in the level of O-GlcNAcylated protein in cells. An increase in O-GlcNAcylated protein can be measured by an antibody, such as RL-2, that binds to O-GlcNAcylated protein. The amount of O-GlcNAcylated protein:RL2 antibody interaction can be measured by enzyme linked immunosorbant assay (ELISA) procedures.\nCompounds to be tested were dissolved in DMSO, either 2 or 10 mM stock solution, and then diluted with DMSO and water in a two-step process using a Tecan workstation. […] If desired, the total protein concentration of samples was determined using 20 μL of the sample using the BCA method. […]\nThe amount of O-GlcNAcylated protein, as detected by the ELISA assay, was plotted for each concentration of test compound using standard curve fitting algorithms for sigmoidal dose response curves. The values for a four parameter logistic curve fit of the data were determined, with the inflection point of the curve being the potency value for the test compound."}, "[2]": {"target": "human O-GlcNAcase (Homo sapiens (Human), UniProt O60502)", "sequence (O60502 whole entry)": "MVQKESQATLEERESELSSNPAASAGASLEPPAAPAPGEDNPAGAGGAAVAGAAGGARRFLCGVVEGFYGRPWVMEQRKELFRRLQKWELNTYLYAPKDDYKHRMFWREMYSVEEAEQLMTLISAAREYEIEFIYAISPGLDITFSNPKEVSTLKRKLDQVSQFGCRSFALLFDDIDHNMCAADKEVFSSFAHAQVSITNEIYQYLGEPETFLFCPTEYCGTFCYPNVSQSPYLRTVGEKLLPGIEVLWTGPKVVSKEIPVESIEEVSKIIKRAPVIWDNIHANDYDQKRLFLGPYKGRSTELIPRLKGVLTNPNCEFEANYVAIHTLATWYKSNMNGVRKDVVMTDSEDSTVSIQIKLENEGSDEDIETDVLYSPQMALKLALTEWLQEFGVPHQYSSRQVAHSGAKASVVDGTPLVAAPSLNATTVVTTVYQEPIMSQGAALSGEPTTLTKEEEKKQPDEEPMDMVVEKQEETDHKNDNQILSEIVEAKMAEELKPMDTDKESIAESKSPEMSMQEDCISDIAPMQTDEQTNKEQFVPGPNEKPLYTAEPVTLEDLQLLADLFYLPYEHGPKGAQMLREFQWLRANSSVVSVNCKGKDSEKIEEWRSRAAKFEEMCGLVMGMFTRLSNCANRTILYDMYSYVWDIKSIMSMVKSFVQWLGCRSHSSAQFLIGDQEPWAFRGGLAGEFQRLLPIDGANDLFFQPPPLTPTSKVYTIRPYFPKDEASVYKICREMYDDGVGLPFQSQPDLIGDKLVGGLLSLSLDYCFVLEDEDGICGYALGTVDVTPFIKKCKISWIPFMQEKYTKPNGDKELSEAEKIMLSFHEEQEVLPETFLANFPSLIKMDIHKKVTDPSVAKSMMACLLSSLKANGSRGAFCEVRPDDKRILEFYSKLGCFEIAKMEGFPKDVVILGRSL", "assay": "biochemical", "conditions": "purified human O-GlcNAcase, 4-methylumbelliferyl N-acetyl-β-D-glucosaminide substrate, pH 7.0, Cheng-Prusoff; read-out: Fluorescence-based hOGA Ki", "method": "Assay for Determination of KI Values for Inhibition of O-GlcNAcase Activity\nExperimental Procedure for Kinetic Analyses:\nEnzymatic reactions were carried out in a reaction containing 50 mM NaH2PO4, 100 mM NaCl and 0.1% BSA (pH 7.0) using 2 mM 4-Methylumbelliferyl N-acetyl-β-D-glucosaminide dihydrate (Sigma M2133) dissolved in ddH2O, as a substrate. The amount of purified human O-GlcNAcase enzyme used in the reaction was 0.7 nM. Test compound of varying concentrations was added to the enzyme prior to initiation of the reaction. The reaction was performed at room temperature in a 96-well plate and was initiated with the addition of substrate. […] The slope of product production was determined for each concentration of compound tested and plotted, using standard curve fitting algorithms for sigmoidal dose response curves. The values for a four parameter logistic curve fit of the data were determined."}},
  "note": "Read-outs that look alike come from different tables or passages of the source.",
  "data": [
    {"smiles": "CNC1=N[C@@H]2[C@@H](O)[C@H](O)[C@@H](COC(=O)N(C)C)O[C@@H]2S1", "note": "[Example 9, ((3aR,5R,6S,7R,7aR)-6,7-dihydroxy-2-(methylamino)-5,6,7,7a-tetrahydro-3aH-pyrano[3,2-d]thiazol-5-yl)methyl dimethylcarbamate]", "values": [
      {"measurement": "EC50", "setting": "[1]; rat PC-12 cells, 24 h treatment, O-GlcNAcylated protein detected with RL-2 antibody, read-out: Cell-based ELISA EC50", "value": 212, "unit": "nM"}
    ]},
    {"smiles": "CNC1=N[C@@H]2[C@@H](O)[C@H](O)[C@@H](CNC3CCCC3)O[C@@H]2S1", "note": "[Example 37, (3aR,5R,6S,7R,7aR)-5-((cyclopentylamino)methyl)-2-(methylamino)-5,6,7,7a-tetrahydro-3aH-pyrano[3,2-d]thiazole-6,7-diol]", "values": [
      {"measurement": "EC50", "setting": "[1]", "value": 3.7, "unit": "nM"}
    ]},
    {"smiles": "CNC1=N[C@@H]2[C@@H](O)[C@H](O)[C@@H](CNCC#N)O[C@@H]2S1", "note": "[Example 53, 2-((((3aR,5R,6S,7R,7aR)-6,7-dihydroxy-2-(methylamino)-5,6,7,7a-tetrahydro-3aH-pyrano[3,2-d]thiazol-5-yl)methyl)amino)acetonitrile]", "values": [
      {"measurement": "Ki", "setting": "[2]", "value": 5.4, "unit": "nM"}
    ]}
  ]
}
